# According to patent US5514662A, “Use of amphotericin B derivatives as protease inhibitors” (priority 1991, dated 1996):
# Legend:
# CD3 = assay: Membrane antigen CD3 in HIV-1 infected cells; assay type: cell-based, human; conditions: treated or untreated infected cells
# Description: Immunofluorescence analyses are carried out on the 8th day of the infection in order to verify whether the inhibition of HIV replication by DABF-AmB results in 10 a reduced membrane expression of viral antigens.
# LAV/BRU strain of HIV-1 = assay: Reverse transcriptase activity in supernatants of HIV-1 infected Jurkat and CEM cells; assay type: cell-based
# Description: The T cells (Jurkat and CEM) used are very permissive to HIV infection. They are cultured in RPMI 1640 medium supplemented with 10% foetal calf serum, 2 mM of glutamine and a mixture of penicillin and streptomycin. The peripheral blood mononuclear cells are obtained from blood from healthy donors, isolated on a Ficoll Hypaque gradient and stimulated with 10 μg/ml of phytohaemagglutinin A (PHA), for two days, in RPMI 1640 medium supplemented, prior to the infection by HIV, with amikacin and vancomycin (10 mg/ml), polybrene (1 mg/ml) and anti-interferon gamma serum (5 U/ml). After infection, the PBMCs are cultured (10^5 per well) in flat-bottomed 96-well plates in the same RPMI 1640 medium (200 μl per well).
# Infectious preparations of the LAV/Bru strain of HIV-1 are obtained from chronically infected CEM cell (clone 13) culture supernatants filtered through a 0.45-μm filter.
# For the infection, fresh Jurkat or CEM type cells are centrifuged and the pellet is incubated for 2 hours at 37° C. with the viral preparation (10000 cpm of reverse transcriptase activity/10^6 cells, which corresponds to a multiplicity of infection of 0.04 to 0.1). The cells are then washed and resuspended (0.5×10^6/ ml) in fresh culture medium. Reverse transcriptase activity is determined at specific times after the infection, using the acellular infected cell supernatant.
# The reverse transcriptase activity is determined at the indicated times using the culture supernatant, according to the procedure described by REY et al., Biochem. Res. Comm. 121, 126-133 (1984).
# The Jurkat and CEM type T cells are infected with the LAV/BRU strain of HIV-1.
# Viral infection and replication are monitored by measuring the reverse transcriptase activity in the culture supernatants.
# To measure the anti-HIV activity of DABF-AmB, infected cells are cultured in the presence of increasing doses (between 0.1 μM and 100 μM) of the product; […] kept constant during the infection by carrying out a one half dilution, every 3 days, of the growing cells in fresh medium containing the desired concentration.
# The corresponding results are illustrated in FIGS. 3b and 3d: the reverse transcriptase activity measured on the 8th day of the viral infection is represented on the y axis and the DABF-AmB concentration on the x axis.
# HUT78 cells = assay: Cytotoxicity in HUT78 cells; assay type: cell-based
# chymotrypsin = assay: Activity of DABF-AmB on various proteases: chymotrypsin; assay type: biochemical; conditions: 1 μM
# Description: DABF-AmB was tested, at a concentration of 1 μM, on various proteases (papain, chymotrypsin, kallicrein, leucocyte elastase, cathopsin D and recombinant protease p10) under conditions and in the presence of substrates appropriate for each of the proteases tested.
# HIV2-rod = assay: Formation of syncytia in HUT78 cells infected with HIV2-rod; assay type: cell-based, HIV-2
# Description: (§1) HUT78 cells were inoculated in 96-well plates in an amount of 2×10^4 cells per well, in […]. They were infected with various viral concentrations and DABF-AmB was added immediately after the infection, at various concentrations. The formation of syncytia was evaluated after 3 and 5 days by direct reading under an inverted microscope (semi-quantitative test).
# reverse transcriptase = target: T1, reverse transcriptase (Human immunodeficiency virus type 1 (BRU ISOLATE), UniProt P03367); assay: Direct action on reverse transcriptase in vitro; assay type: biochemical
# T1 construct: probably viral enzyme of LAV/BRU (LAI) culture supernatant
# SIVmac251 = assay: Formation of syncytia in HUT78 cells infected with SIVmac251; assay type: cell-based, SIV
# Description: as §1
# LTR of HIV = assay: Early phases of HIV infection: transactivation of LTR-LacZ in CD4 HeLa cells (blue colonies); assay type: cell-based, HIV-1; conditions: 10 μM, 24 hours after infection
# Description: HeLa cells transfected with the CD4 gene and capable of being infected by HIV, carrying the bacterial gene LacZ placed under the control of the LTR of HIV ROCANCOURT et al., J. Virol., 64:2660-2668, (1990)!, were infected with HIV-1BRU. […] This detection was carried out after fixing the cells by incubating for one hour in-the presence of 5-bromo-4-chloro-3-indoyl-β-D-[…] and enzyme substrate.
structure (smiles),measurement,setting,value
"C[C@@H]1[C@H](O)[C@@H](C)/C=C/C=C/C=C/C=C/C=C/C=C/C=C/[C@H](O[C@@H]2O[C@H](C)[C@@H](O)[C@H](NCC(=O)[C@@H](O)[C@@H]3OC(c4ccccc4)OC[C@H]3O)[C@@H]2O)C[C@@H]2O[C@](O)(C[C@@H](O)C[C@@H](O)[C@H](O)CC[C@@H](O)C[C@@H](O)CC(=O)O[C@H]1C)C[C@H](O)[C@H]2C(=O)O (stereo partly drawn) [DABF-AmB, 1-deoxy-1-amino-4,6-O-benzylidene-D-fructosyl-AmB]",level of the membrane antigen CD3,CD3,unchanged
same,inhibition of reverse transcriptase activity,LAV/BRU strain of HIV-1; 10 μM added during the 2-hour inoculation stage,does not bring about any significant inhibition
same,inhibition of reverse transcriptase activity,LAV/BRU strain of HIV-1; 10 μM added prior to infection (24 hours pretreatment),does not bring about any significant inhibition
same,inhibition at 10 µM,"LAV/BRU strain of HIV-1; Human immunodeficiency virus 1, 192 h, Jurkat and CEM cells, 10 μM, 8th day, N=4",88%
same,minimal effective concentration,"LAV/BRU strain of HIV-1; Human immunodeficiency virus 1, 192 h, Jurkat and CEM cells, 8th day, read-out: concentration from which inhibition of reverse transcriptase activity is observed",≥ 5 µM
same,inhibition of reverse transcriptase activity (in words),"LAV/BRU strain of HIV-1; Jurkat and CEM cells, concentrations below 1 μM",No significant inhibition
same,cytotoxicity,"HUT78 cells; 50 μM, HIV2 table, 3 days",low cytotoxicity
same,cytotoxicity,"HUT78 cells; 50 μM, SIV table, 3 days",low cytotoxicity
same,cytotoxicity,"HUT78 cells; 100 μM, HIV2 table, 3 days",high cytotoxicity
same,cytotoxicity,"HUT78 cells; 100 μM, HIV2 table, 5 days",cytotoxicity
same,cytotoxicity,"HUT78 cells; 100 μM, SIV table, 3 days",high cytotoxicity
same,cytotoxicity,"HUT78 cells; 100 μM, SIV table, 5 days",cytotoxicity
same,inhibition of chymotrypsin,chymotrypsin,does not inhibit
same,formation of syncytia,"HIV2-rod; 5 μM, 10 TCID50, 3 days",- and +
same,formation of syncytia,"HIV2-rod; 5 μM, 10 TCID50, 5 days",- and +
same,formation of syncytia,"HIV2-rod; 5 μM, 100 TCID50, 3 days",+
same,formation of syncytia,"HIV2-rod; 10 μM, 10 TCID50, 3 days",-
same,formation of syncytia,"HIV2-rod; 10 μM, 10 TCID50, 5 days",-
same,formation of syncytia,"HIV2-rod; 10 μM, 100 TCID50, 3 days",+ and -
same,formation of syncytia,"HIV2-rod; 50 μM, 10 TCID50, 5 days",-
same,formation of syncytia,"HIV2-rod; 50 μM, 100 TCID50, 3 days",-
same,formation of syncytia,"HIV2-rod; 50 μM, 100 TCID50, 5 days",-
same,formation of syncytia,"HIV2-rod; 100 μM, 100 TCID50, 3 days",-
same,formation of syncytia,"HIV2-rod; 100 μM, 100 TCID50, 5 days",-
same,inhibition of formation of syncytia (in words),"HIV2-rod; HUT78, HIV-2",in a dose-dependent manner
same,direct action on reverse transcriptase activity,reverse transcriptase,no direct action
same,formation of syncytia,"SIVmac251; 0.1 μM, 10 TCID50, 3 days",-
same,formation of syncytia,"SIVmac251; 0.1 μM, 10 TCID50, 5 days",+
same,formation of syncytia,"SIVmac251; 0.1 μM, 100 TCID50, 3 days",+
same,formation of syncytia,"SIVmac251; 0.5 μM, 10 TCID50, 3 days",-
same,formation of syncytia,"SIVmac251; 0.5 μM, 10 TCID50, 5 days",+
same,formation of syncytia,"SIVmac251; 0.5 μM, 100 TCID50, 3 days",+
same,formation of syncytia,"SIVmac251; 1 μM, 10 TCID50, 3 days",-
same,formation of syncytia,"SIVmac251; 1 μM, 10 TCID50, 5 days",+
same,formation of syncytia,"SIVmac251; 1 μM, 100 TCID50, 3 days",+
same,formation of syncytia,"SIVmac251; 5 μM, 10 TCID50, 3 days",-
same,formation of syncytia,"SIVmac251; 5 μM, 10 TCID50, 5 days",- and +
same,formation of syncytia,"SIVmac251; 5 μM, 100 TCID50, 3 days",- and +
same,formation of syncytia,"SIVmac251; 5 μM, 100 TCID50, 5 days",- and +
same,formation of syncytia,"SIVmac251; 5 μM, 500 TCID50, 3 days",- and +
same,formation of syncytia,"SIVmac251; 5 μM, 500 TCID50, 5 days",+ and -
same,formation of syncytia,"SIVmac251; 10 μM, 10 TCID50, 3 days",-
same,formation of syncytia,"SIVmac251; 10 μM, 10 TCID50, 5 days",-
same,formation of syncytia,"SIVmac251; 10 μM, 100 TCID50, 3 days",-
same,formation of syncytia,"SIVmac251; 10 μM, 100 TCID50, 5 days",- and +
same,formation of syncytia,"SIVmac251; 10 μM, 500 TCID50, 3 days",-
same,formation of syncytia,"SIVmac251; 10 μM, 500 TCID50, 5 days",- and +
same,formation of syncytia,"SIVmac251; 50 μM, 10 TCID50, 3 days",-
same,formation of syncytia,"SIVmac251; 50 μM, 100 TCID50, 3 days",-
same,formation of syncytia,"SIVmac251; 50 μM, 100 TCID50, 5 days",-
same,formation of syncytia,"SIVmac251; 50 μM, 500 TCID50, 3 days",-
same,formation of syncytia,"SIVmac251; 50 μM, 500 TCID50, 5 days",-
same,formation of syncytia,"SIVmac251; 100 μM, 10 TCID50, 5 days",-
same,formation of syncytia,"SIVmac251; 100 μM, 100 TCID50, 3 days",-
same,formation of syncytia,"SIVmac251; 100 μM, 100 TCID50, 5 days",-
same,formation of syncytia,"SIVmac251; 100 μM, 500 TCID50, 3 days",-
same,formation of syncytia,"SIVmac251; 100 μM, 500 TCID50, 5 days",-
same,inhibition of formation of syncytia (in words),"SIVmac251; HUT78, SIV",in a dose-dependent manner
same,inhibition of appearance of blue colonies,LTR of HIV,completely inhibits
